These results are taken from article PMC5999033 (European journal of medicinal chemistry, 2018).

Like-named read-outs stand apart in the source and are kept apart here.

One data set addresses FABP4 (Homo sapiens, UniProt P15090). Put plainly: FABP4 inhibition. As to conditions: Fig. S5.
Data set [1] deals with formalin-induced mouse models. As to conditions: cited from earlier work.
Data set [2] concerns the target T1, FABP7 (Homo sapiens, UniProt O15540). As to the kind of experiment: Direct ligand binding assay of fluorescent probes, FABP7.
Data set [3] can be described thus: Dynamic light scattering, colloidal aggregation. The format is physicochemical. The following applies: 20 μM in PBS, 24°C.
The target of data set [4] is T2, FABP5 (Homo sapiens, UniProt Q01469). Put plainly: Direct ligand binding assay of fluorescent probes, FABP5.
Data set [5] addresses T3, FABP3 (Homo sapiens, UniProt P05413). Put plainly: Direct ligand binding assay of fluorescent probes, FABP3.
Data set [6] addresses T2, FABP5. The following applies: read-out: Kd towards FABP5; determined in a previous study; cited from earlier work.
Data set [7] deals with T1, FABP7. The following applies: read-out: Kd towards FABP7; determined in a previous study; cited from earlier work.
The target of data set [8] is T3, FABP3. The following applies: read-out: Kd towards FABP3; determined in a previous study; cited from earlier work.

FABP4, sequence (P15090 whole entry): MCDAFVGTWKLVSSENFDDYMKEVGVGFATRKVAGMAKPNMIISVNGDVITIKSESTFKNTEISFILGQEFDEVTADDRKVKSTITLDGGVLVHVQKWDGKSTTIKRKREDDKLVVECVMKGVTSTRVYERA
T3 sequence (P05413 whole entry): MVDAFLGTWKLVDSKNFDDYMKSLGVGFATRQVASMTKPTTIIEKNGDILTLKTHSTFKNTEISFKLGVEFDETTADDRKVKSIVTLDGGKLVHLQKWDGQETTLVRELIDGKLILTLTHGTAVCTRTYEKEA
T2 sequence (Q01469 whole entry): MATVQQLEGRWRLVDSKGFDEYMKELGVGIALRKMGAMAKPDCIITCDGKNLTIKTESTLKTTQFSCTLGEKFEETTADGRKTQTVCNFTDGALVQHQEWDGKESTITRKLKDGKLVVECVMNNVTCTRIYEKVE
T1 sequence (O15540 whole entry): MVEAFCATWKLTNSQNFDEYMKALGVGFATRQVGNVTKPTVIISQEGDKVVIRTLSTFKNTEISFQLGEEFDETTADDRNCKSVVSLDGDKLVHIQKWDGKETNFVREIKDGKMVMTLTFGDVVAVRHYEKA

With `C#Cc1cccc(OC(=O)[C@H]2[C@@H](c3ccccc3)[C@H](C(=O)O)[C@@H]2c2ccccc2)c1` (racemic) [Compound 3f, 1-(3-Ethynylphenyl) α-3-hydroxycarbonyl-2,4-diphenylcyclobutane-1-carboxylate], the FABP4 inhibition result at FABP4 is recorded as “do not appreciably inhibit FABP4”.

Take `COc1ccccc1[C@H]1[C@H](C(=O)O)[C@H](c2ccccc2OC)[C@H]1C(=O)Oc1cccc2ccccc12` (racemic) [Compound 4b, 1-Naphthyl α-3-hydroxycarbonyl-2,4-di(2-methoxylphenyl)cyclobutane-1-carboxylate]: the FABP4 inhibition entry on FABP4 was “do not appreciably inhibit FABP4”.

As to `COc1ccccc1[C@H]1[C@H](C(=O)O)[C@H](c2ccccc2OC)[C@H]1C(=O)OCC1c2ccccc2-c2ccccc21` (racemic) [Compound 4j, 9-Fluorenylmethyl α-3-hydroxycarbonyl-2,4-di(2-methoxylphenyl)cyclobutane-1-carboxylate], the FABP4 inhibition entry at FABP4 is “do not appreciably inhibit FABP4”.

`COc1cc([C@H]2[C@H](C(=O)O[C@@H]3C[C@@H]4[C@@H](CN(C)C[C@@H]4C)[C@@H]3C)[C@H](c3ccc(O)c(OC)c3)[C@H]2C(=O)O[C@@H]2C[C@@H]3[C@@H](CN(C)C[C@@H]3C)[C@@H]2C)ccc1O` [(-)-incarvillateine]: the “analgesic and anti-inflammatory effects” value in data set [1] was “potent analgesic and anti-inflammatory effects”.

By Kd is commonly meant the concentration at which binding is half-saturated. `O=S(=O)(O)c1cccc2cccc(Nc3ccccc3)c12` [ANS, 1-Anilinonaphthalene-8-sulfonic Acid] registered a Kd at FABP7 [2] of 1010 nM.

For the compound `O=C(O)C1C(c2ccccc2)C(C(=O)O[C@@H]2CCCC[C@H]2c2ccccc2)C1c1ccccc1` (stereo partly drawn) [Compound 3l, 1-[(1R,2S)-2-Phenylcyclohexyl] α-3-hydroxycarbonyl-2,4-diphenylcyclobutane-1-carboxylate], in [3], the “colloidal aggregation by DLS” value is “no evidence of colloidal aggregation”.

Consider `CN(C)c1cccc2c(S(=O)(=O)NCCCCCCCCCCC(=O)O)cccc12` [DAUDA, 11-[5-(Dimethylamino)-1-naphthalenesulfonyl-amino]undecanoic acid], for which the figures for the Kd on FABP5 [4] and at FABP3 [5] were 2560 nM and 2040 nM, respectively.

In the case of `CCCCCCC(CCCCCCCCCCC(=O)O)N(C)c1ccc([N+](=O)[O-])c2nonc12` (centres unmarked) [NBD-stearate, 12-N-methyl-(7-nitrobenz-2-oxa-1,3-diazo)aminostearic acid], the Kd at FABP5 [6] is 160 nM; at FABP7 [7] it was 220 nM; on FABP3 [8], 18 nM.
